The values below come from article PMC9159852, “Synthesis, Structure, and Biologic Activity of Some Copper, Nickel, Cobalt, and Zinc Complexes with 2-Formylpyridine N^4-Allylthiosemicarbazone” (Bioinorganic Chemistry and Applications, 2022).

Data set [1] concerns human cervical epithelial (HeLa) cell line. The experiment in a line: Antiproliferative activity (MTS and Resazurin assays), HeLa. Particulars: for IC50: HeLa; for SI (selectivity index): IC50(MDCK)/IC50(HeLa). The format is cell-based. How it is done: (§1) The antiproliferative activity of the studied substances was determined toward a series of cancer cell lines (HL-60 (ATCC CCL-240), BxPC-3 (ATCC CRL-1687), HeLa (ATCC CCL-2), RD (ATCC CCL-136)), and a normal cell line (MDCK (ATCC CCL-34)). These cell lines were cultured in accordance with the previously described method. Determination of the number of viable cells after cultivation in the presence of various concentrations of the studied substances was carried out by the MTS and Resazurin assays according to the previously described method. The 10-mM stock solutions of the studied compounds as well as the reference compound (doxorubicin) were prepared by dissolving 10 μmol of the corresponding compound in 1 mL of DMSO. The 0.1, 1, 10, and 100 μM solutions were prepared by dilution of the stock solutions with the corresponding medium and used for the study of antiproliferative activity.

The subject of data set [2] is normal kidney epithelial (MDCK) cell line. The experiment in a line: Antiproliferative activity (MTS and Resazurin assays), MDCK normal cell line. The format is cell-based. On the procedure: as §1
For orientation: Formazan colour is commonly taken as a measure of viable cells.

Data set [3] has as its system human leukemia HL-60 cell line. Nature of the data set: Antiproliferative activity (MTS and Resazurin assays), HL-60. Format: cell-based. Particulars: for inhibition at 0.1 µM / inhibition at 1 µM / inhibition at 10 µM: read-out: Inhibition of cell proliferation, (%); for IC50: HL-60, Table 3; for SI (selectivity index): IC50(MDCK)/IC50(HL-60). On the procedure:
as §1

Data set [4] has as its system human muscle rhabdomyosarcoma (RD) cell line. Nature of the data set: Antiproliferative activity (MTS and Resazurin assays), RD. The conditions noted are these: for IC50: RD; for SI (selectivity index): IC50(MDCK)/IC50(RD). Format: cell-based. On the procedure: as §1
Data set [5] can be described thus: Acute toxicity assay against Daphnia magna. The conditions noted are these: Daphnia magna, in vivo, pH 7.5. On the procedure: (§2) The general toxicity of the tested compounds was evaluated using Daphnia magna (Straus, 1820). Daphnia magna was originated from a culture maintained parthenogenetically at the Institute of Zoology (Laboratory of Systematics and Molecular Phylogeny).
(§3) The test design was based on ISO 6341 : 2012. The test-organisms Daphnia magna Straus were fed with Chlorella vulgaris. These unicellular algae were grown using aseptic technology to exclude contamination of the culture by bacteria, algae or protozoa. Chlorella vulgaris were cultivated in Prat's growth medium containing KNO3 (1 μM), MgSO4·7H2O (40 μM), K2HPO4·3H2O (400 μM), FeCl3·6H2O (3.6 μM) in H2O distilled (adjusted the pH to 7.0, autoclaved and stored at 5°C).
(§4) D. magna was maintained in aerated aqueous straw infusion growth media supplemented with CaCl2 ([…]), NaHCO3 (2.59 g/L), KCl (0.23 g/L), and MgSO4, 7H2O (4.93 g/L). (pH∼7.5 ± 0.2; O2 ≥ 6.0 mg/L).
(§5) Juveniles were selected according to their size and kept in fresh medium for 24 h. D. magna was cultured in Costar® 24-well culture clear sterile multiple well plates covered by a lid to prevent the possibility of contamination and evaporation but at the same time to allow gaseous exchange between air and culture medium. Each well contained 10 daphnids in 1000 μL final volume of each dilution of the tested compounds.
(§6) The bioassay was then repeated at the concentrations ranging from 0.1 to 100 μM (0.1, 1, 10, and 100 μM) in order to determine LC50 for each compound, including doxorubicin (the positive control). Aqueous straw infusion growth media was used to dilute the stock solutions to the required concentrations. […] A 0.1% solution of DMSO in aerated medium (pH∼7.5 ± 0.2; O2 ≥ 6.0 mg/L) was used as a negative control. Throughout the experiment, the juvenile daphnids were incubated at 22 ± 2 °C, using a 16 h/8 h light/dark cycle (500–1000 lx). The mobility (viability) of the test organisms was observed after the 24-h exposure. The experiment was performed in triplicate.
(§7) The percentage of viability (V (%)) of Daphnia magna was calculated according to the formula:(1) V%=Nsample/Ncontrol×100.
(§8) N - Number of viability of Daphnia magna.
(§9) The compounds median lethal concentration that kills 50% of the juvenile daphnids (LC50) values were calculated from the dose-response equation determined by the least squares fit method.

Data set [6] deals with human epithelial pancreatic adenocarcinoma (BxPC-3) cell line. The experiment in a line: Antiproliferative activity (MTS and Resazurin assays), BxPC-3. Format: cell-based. The conditions noted are these: for SI (selectivity index): IC50(MDCK)/IC50(BxPC-3). On the procedure: as §1
Data set [7] has as its system Staphylococcus aureus (ATCC 25923). Nature of the data set: Antibacterial activity, serial dilutions in liquid broth, S. aureus. The format is cell-based. The conditions noted are these: S. aureus (G+). How it is done: (§10) Antibacterial and antifungal properties of the studied substances were determined on a series of standard strains of Gram-positive microorganisms (Staphylococcus aureus (ATCC 25923)), Gram-negative microorganisms (Escherichia coli (ATCC 25922)), and fungi (Candida albicans (ATCC 10231)) using the method of serial dilutions in liquid broth. Stock solutions of the studied compounds as well as the reference compounds (furacillinum and nystatin) were prepared by dissolving 10 mg of the corresponding compound in 1 mL of DMSO. After that, the starting solutions (1 mg/mL) were prepared by tenfold dilution of the stock solution with nutrition medium (2% of peptonate bullion). The next dilutions were prepared by serial double dilution with the nutrition medium.

Data set [8] can be described thus: Antiradical activity, ABTS•+ method. The conditions noted are these: read-out: IC50 toward ABTS•+ radical cation. How it is done: The ABTS^•+ method was applied for the determination of antiradical activity of the studied substances. Standard solutions of ABTS^•+ radical cations and tested substances as well as the conditions of spectrophotometric measurements and calculations of inhibition were made as described. The 10-mM stock solutions of the studied compounds as well as the reference compound (trolox) were prepared by dissolving 10 μmol of the corresponding compound in 1 mL of DMSO. The 1, 10, 100, and 1000 μM solutions were prepared by the dilution of stock solutions with DMSO. After that, 20 μL of each tested compound solutions was transferred in a 96-well microtiter plate, and 180 μL of ABTS^•+ working solution was added to receive solutions with final concentrations of tested compounds 0.1, 1, 10, and 100, respectively.

The test system of data set [9] is Escherichia coli (ATCC 25922). Nature of the data set: Antibacterial activity, serial dilutions in liquid broth, E. coli. Format: cell-based. The conditions noted are these: E. coli (G-). On the procedure: as §10
Data set [10] has as its system Candida albicans (ATCC 10231). The experiment in a line: Antifungal activity, serial dilutions in liquid broth, C. albicans. Format: cell-based. On the procedure: as §10
For a further data set, the system named is Daphnia magna. Nature of the data set: Acute toxicity assay against Daphnia magna. Particulars: 24 h exposure; for LC50: Daphnia magna. On the procedure:
as §2, §3, §4, §5, §6, §7, §8, §9

The mark [11] stands for this setting: other: exposure in the test medium (immersion).

Where two headings read alike, the source gives them in different places.

For `COc1cccc2c1C(=O)c1c(O)c3c(c(O)c1C2=O)C[C@@](O)(C(=O)CO)C[C@@H]3O[C@H]1C[C@H](N)[C@H](O)[C@H](C)O1` [Doxorubicin, doxorubicin, reference compound], the IC50 in data set [1] (Homo sapiens) worked out at 10000 ± 400 nM; in [2] (Canis lupus familiaris), 7100 ± 300 nM; in data set [3] (Homo sapiens) it was 200 ± 100 nM; in data set [4] (Homo sapiens), 16200 ± 600 nM; in data set [6] (Homo sapiens, BXPC-3), 3700 ± 300 nM. In addition, the “SI (selectivity index)” value in data set [1] was 0.71; in data set [3], 35.5; in data set [4] it was 0.44; in [6], 1.9. Also, in [3] (Homo sapiens, HL-60, 0.1 μM), the inhibition at 0.1 µM worked out at 16.5 ± 1.8%. In addition, the inhibition at 1 µM in data set [3] (Homo sapiens, HL-60, 1 μM) is 92.9 ± 0.7%. For the same molecule, in data set [3] (Homo sapiens, HL-60, 10 μM), the inhibition at 10 µM is 95 ± 0.6%. Moreover, the viability at 24 h, 0.1 µM in data set [5] (setting [11]) worked out at 87.2 ± 7.3%. The viability at 24 h, 1 µM in data set [5] (setting [11]) came out at 76.9 ± 7.3%. This molecule also showed a viability at 24 h, 10 µM in data set [5] (setting [11]) of 25.6 ± 7.3%. The viability at 24 h, 100 µM in [5] (setting [11]) was found to be 0%. The molecule also showed an LC50 at 24 h in data set [5] of 3300 ± 1100 nM.
In the case of `C=CCNC(=S)N/N=C/c1cccnc1` [HL^a], in [3] (Homo sapiens, HL-60, 0.1 μM), the inhibition at 0.1 µM was determined as 0.9 ± 0.2%. Moreover, the inhibition at 1 µM in data set [3] (Homo sapiens, HL-60, 1 μM) came out at 1.5 ± 0.5%. Besides, in [3] (Homo sapiens, HL-60, 10 μM), the inhibition at 10 µM turned out to be 6.1 ± 0.3%.
For `C=CCNC(=NN=Cc1ccccn1)[S][Cu][Cl]` [compound 2, [Cu(L)Cl]], the MBC is 0.244 µg/mL in data set [7] and 7.81 µg/mL in data set [9]. In addition, the MIC in data set [7] came to 0.122 µg/mL; in [9], 3.91 µg/mL; in data set [10] it was 15.6 µg/mL. The IC50 in [1] is 400 ± 30 nM; in data set [8], greater than 100000 nM; in [2] it was 3000 ± 400 nM; in data set [3], 100 ± 60 nM; in data set [4], 130 ± 20 nM; in [6] (BxPC-3), 50 ± 20 nM. The “SI (selectivity index)” value in data set [1] worked out at 7.5; in data set [3] it was 30; in data set [4], 23; in [6], 60. In data set [10], this molecule returned an MFC of 31.3 µg/mL. Further, the “Inhibition of cell proliferation, (%)” value in [3] (HL-60, 0.1 μM) was 40.2 ± 2.8%; in data set [3] (HL-60, 1 μM) it was 99.2 ± 0.2%; in data set [3] (HL-60, 10 μM), 99.4 ± 0.6%. Also, the “V, (%) percentage of viability of Daphnia magna” value with Daphnia magna (0.1 μM) is 102.6 ± 0.0%; in the data set on Daphnia magna (1 μM) it was 97.4 ± 7.3%; with Daphnia magna (10 μM), 0.0%; in the data set with Daphnia magna (100 μM), 0.0%. Besides, the LC50 in the data set with Daphnia magna is 3500 ± 2800 nM.
`C=CCNC(=NN=Cc1ccccn1)[S][Cu][Br]` [compound 3, [Cu(L)Br]]: the MBC in [7] worked out at 0.488 µg/mL; in data set [9], 15.6 µg/mL. The figures for the MIC in [7], in data set [9] and in [10] were 0.244 µg/mL, 7.81 µg/mL and 7.81 µg/mL, respectively. Also, the IC50 in data set [1] was found to be 300 ± 30 nM; in [8], 43000 ± 2100 nM; in data set [2], 6200 ± 1400 nM; in [3], 100 ± 40 nM; in [4], 200 ± 100 nM; in [6] (BxPC-3), 60 ± 10 nM. Also, the “SI (selectivity index)” value in [1] was determined as 21; in [3], 62; in data set [4], 31; in data set [6] it was 103. The molecule further came in with a minimum fungicidal concentration (MFC) in data set [10] of 15.6 µg/mL. Besides, the “Inhibition of cell proliferation, (%)” value was 24.5 ± 1.9% in [3] (HL-60, 0.1 μM); 100.0 ± 0.3% in data set [3] (HL-60, 1 μM); 100.0 ± 0.1% in [3] (HL-60, 10 μM). The “V, (%) percentage of viability of Daphnia magna” value in the data set on Daphnia magna (0.1 μM) was determined as 102.6 ± 0.0%; with Daphnia magna (1 μM) it was 97.4 ± 7.3%; in the data set with Daphnia magna (10 μM), 0.0%; in the data set with Daphnia magna (100 μM) it was 0.0%. The LC50 in the data set with Daphnia magna came out at 3500 ± 2800 nM.

A word on the IC50: it is the concentration at which inhibition is half-maximal. As usually defined, the viability is the share of living cells, or the viability signal relative to a control. The LC50 is the concentration that kills 50% of the test population. Higher therefore signals lower toxicity. As usually defined, the MBC is the smallest concentration meeting the test's criterion for killing. In general, MIC refers to the smallest concentration in the dilution series that meets the test's criterion for growth inhibition. Read a high MIC as a need for much substance. The MFC is the smallest concentration meeting the test's criterion for killing the fungus. A high value points to less potent killing.
